{
  "source": "patent US20240083874A1",
  "about": "“TARGETING PLECKSTRIN-2 FOR TREATING CANCER AND OTHER DISEASES AND DISORDERS” (Northwestern University, priority 2021, published 2024)",
  "test_system": "mouse fetal liver erythroblasts",
  "test": "mouse fetal liver erythroblast proliferation in erythropoietin containing medium",
  "assay_type": "cell-based",
  "settings": "approximately 10 uM NUP-52A added to the culture; proliferation monitored daily for two days; comparable to JAK2 inhibitor Ruxolitinib (FIG. 4)",
  "method": "FIG. 4. Effect of NUP-52A on cell proliferation, differentiation, and enucleation in comparison to ruxolitinib. Ter119 negative mouse fetal liver erythroblasts were purified and cultured in erythropoietin containing medium. NUP-52A (Panels A, B, and C) or Ruxolitinib (Panels D, E, and F) with indicated concentrations were added to the culture media at the start of culture. The cells were cultured for two days. Cell proliferation, differentiation, and enucleation were analyzed using flow cytometry on day 2.\nTo screen these compounds, an assay using a well-developed Plek2 functional screening system (28) was performed. In this system, mouse fetal liver erythroid progenitors are purified and cultured in erythropoietin containing medium. These cells undergo rapid proliferation closely mimicking accelerated erythropoiesis in MPNs. In these cells, Plek2 is also highly expressed during the culture. This system then may be utilized to test Plek2 inhibitor compounds.\nWe used mouse fetal liver erythroblasts to test the compound. Approximately 10 uM NUP-52A was added in the fetal liver erythroblast culture and the proliferation of the cells is monitored daily for two days. […] (See FIG. 4).",
  "note": "Entries after “also recorded” stand apart in the source; their conditions may differ.",
  "data": [
    {"smiles": "Clc1ccc2c(N3CCNCC3)cc(-c3c[nH]c4ccccc34)nc2c1", "note": "[NUP-52A, 7-chloro-4-(piperazin-1-yl)-2-(1H-indol-3-yl)quinoline]", "values": [
      {"measurement": "effect on the proliferation of erythroblasts", "value": "potent effects; also recorded: strong inhibitory effects"}
    ]}
  ]
}
